Data: patent publication US8623429B2, “Stabilized anthocyanin compositions” (Omnica GmbH, priority 2007, dated 2014)

Legend:
Type in all cases: physicochemical
[1] = Example 6: stability of free anthocyanidins delphinidin and malvidin at 37° C., pH 7.0, with/without GSH (HPLC); conditions: pH 7.0, 37° C.
Method: (§1) Sample a) 5 mg delphinine chloride (0.015 mmol) was transferred into a 100 ml flask, dissolved in 1 ml methanol and filled to volume with sodium phosphate buffer (5% [w/w], pH=7.0). The sample was kept with stirring at 37° C. Samples were taken immediately after dissolution, after 15 minutes, 1, 2, and 3 hours of incubation. The samples were acidified with formic acid to pH=1.0 and analyzed by HPLC.
as §1, with “b)” for “a)”, “malvidin” for “delphinine”, “(0.014” for “(0.015”, “dissolution and at” for “dissolution, after 15 minutes,”
(§2) Sample c) 5 mg delphinidine chloride (0.015 mmol) and 10 mg GSH (0.032 mmol) were transferred into a 100 ml flask, dissolved in 1 ml methanol and filled to volume with sodium phosphate buffer (5% [w/w], pH=7.0). The sample was kept with stirring at 37° C. Samples were taken at 15 minutes after dissolution and after 1, 2 and 3 hours of incubation. The samples were acidified with formic acid to pH=1.0 and analyzed by HPLC.
as §2, with “d)” for “c)”, “malvidin” for “delphinidine”, “(0.014” for “(0.015”, “taken” for “taken at”
(§3) Samples were prepared as outlined below in HPLC Analytical Method. Test stability samples were immediately acidified (to block degradation) and injected undiluted following the detailed description provided below.

[2] = Example 1: stability of bilberry extract anthocyanosides, 4 hours at 37° C., pH 7.0, with/without DHLA or GSH (HPLC)
Method: (0.048 mmol anthocyanosides expressed as cyanidin-3-O-glucoside) were added to a 100 ml flask and filled to volume with sodium phosphate buffer (5% [w/w], pH=7.0), and stirred until dissolution was complete. A 1 ml sample was taken immediately and acidified with formic acid to pH=1.0 and analyzed by HPLC for the content of anthocyanosides (Fresh Sample). The remaining solution was kept for 4 hours at 37° C. (water bath) with stirring. Thereafter another sample (Blank sample), representing unprotected degradation, was taken and acidified.
(0.048 mmol expressed as cyanidin-3-O-glucoside) were then added and the flask was filled to volume with sodium phosphate buffer (5% [w/w], pH=7.0) and kept for 4 hours at 37° C. (water bath) with stirring.
Quantitation: External standardization based on linear regression analysis. The response factors of all anthocyanosides separated is quantitified against cyanidin-3-O-glucoside.
Test solutions from incubation experiments (with/without cells and with/without stabilizing agents) were used for analysis after stabilization of anthocyanosides with formic acid. Samples were cleared by filtration prior to injection on to HPLC-system.

[3] = Example 2: degradation over time of selected bilberry anthocyanosides at 37° C., pH 7.0, with/without GSH (HPLC); conditions: pH 7.0, 37° C.; for %-residual anthocyanosides (% left): 4.30 hours
Method: Sample a) 60 mg bilberry extract [37% anthocyanosides] (0.048 mmol expressed as cyanidin-3-O-glucoside) were added to a 100 ml, filled to volume with sodium phosphate buffer (5% [w/w], pH=7.0) and stirred until dissolution was complete. A 1 ml sample was immediately taken and acidified with formic acid to pH=1.0 and analyzed by HPLC for the content of anthocyanosides. The remaining solution was kept at 37° C. (water bath) with stirring and additional 1 ml samples (Blank Samples), representing unprotected degradation, were sampled every 15 minutes. The samples were analyzed for selected anthocyanosides by HPLC.
Sample b) 20 mg reduced L-glutathione (0.065 mmol) were added to a 100 ml flask with 60 ml sodium phosphate buffer (5% [w/w], pH=7.0) and stirred until dissolution was complete. 60 mg bilberry extract [37% anthocyanosides] (0.048 mmol expressed as cyanidin-3-O-glucoside) were added and the flask was filled to volume with sodium phosphate buffer (5% [w/w], pH=7.0) and kept at 37° C. (water bath) with stirring. Every 15 minutes, 1 ml samples were taken and analyzed for selected anthocyanosides by HPLC.
as §3
HPLC Analytical Method (Materials, Instruments and Methods): […]

[4] = Example 9: stability of bilberry extract anthocyanosides, 4 hours at 37° C., pH 7.0, with/without L-cysteine
Method: Sample a) 60 mg bilberry extract [37% anthocyanosides] (0.048 mmol anthocyanosides expressed as cyanidin-3-O-glucoside) were added to a 100 ml flask with 60 ml sodium phosphate buffer (5% [w/w], pH=7.0), and stirred until dissolution was complete. A 1 ml sample was taken immediately and acidified with formic acid to pH=1.0 and analyzed by HPLC for the content of anthocyanosides (Fresh Sample). The remaining solution was kept for 4 hours at 37° C. (water bath) with stirring. Thereafter another sample (Blank sample), representing unprotected degradation, was taken and acidified.
Sample b) 20 mg L-cysteine […] were added to a 100 ml flask with 60 ml sodium phosphate buffer (5% [w/w], pH=7.0) and stirred until dissolution was complete. 60 mg bilberry extract [37% anthocyanosides] (0.048 mmol expressed as cyanidin-3-O-glucoside) were then added to the flask and stir to fully dissolve, then kept for 4 hours at 37° C. (water bath) with stirring.
After 4 hours, samples were taken and acidified immediately with formic acid to pH=1.0 and analyzed by HPLC for the content of anthocyanosides. Degradation is expressed as decrease in peak area of individual peaks (calculated as % left after 4 hours).
Samples were prepared as outlined above in the HPLC Analytical Method. Test stability samples were immediately acidified (to block degradation) and injected undiluted following the detailed description provided below.

[5] = 20 mg reduced L-glutathione, pH 7.0, 37° C., 4 hours
[6] = 30 mg dihydrolipoic acid, pH 7.0, 37° C., 4 hours
[7] = unprotected, pH 7.0, 37° C., 4 hours

Oc1cc(O)c2cc(O)c(-c3cc(O)c(O)c(O)c3)[o+]c2c1 [Delphinidin]
Peak Area ([1]; Blank, 0 hours): 48.6
Peak Area ([1]; Blank, 0.25 hours): BLD
Peak Area ([1]; Blank, 1 hour): BLD
Peak Area ([1]; Blank, 2 hours): BLD
Peak Area ([1]; Blank, 3 hours): BLD
Peak Area ([1]; GSH 10 mg, 0.25 hours): BLD
Peak Area ([1]; GSH 10 mg, 1 hour): BLD
Peak Area ([1]; GSH 10 mg, 2 hours): BLD
Peak Area ([1]; GSH 10 mg, 3 hours): BLD

OC[C@H]1O[C@@H](Oc2cc3c(O)cc(O)cc3[o+]c2-c2cc(O)c(O)c(O)c2)[C@H](O)[C@@H](O)[C@H]1O [Dp-3O-Gal, Delphinidin 3-o-galactoside]
% left, GSH (4 hours) [2, 5]: 50.6%
Peak Area, GSH (4 hours) [2, 5]: 331.3
% left, DHLA (4 hours) [2, 6]: 60.5%
Peak Area, DHLA (4 hours) [2, 6]: 395.8
Peak Area, Fresh (0 hours) ([2]; bilberry extract 60 mg/100 ml sodium phosphate buffer pH 7.0, fresh sample): 654.4
% left, Blank (4 hours) [2, 7]: 7.8%
Peak Area, Blank (4 hours) [2, 7]: 50.9
Peak Area ([3]; Blank Sample, 1:15 h): 354.36
Peak Area ([3]; Blank Sample, 4:15 h): 226.99
Peak Area ([3]; Blank Sample, 4:30 h): 135.48
Peak Area ([3]; Blank sample, 0:00 h): 699.51
Peak Area ([3]; Blank sample, 0:15 h): 547.09
Peak Area ([3]; Blank sample, 0:30 h): 603.54
Peak Area ([3]; Blank sample, 0:45 h): 451.09
Peak Area ([3]; Blank sample, 1:00 h): 467.23
Peak Area ([3]; Blank sample, 1:45 h): 401.11
Peak Area ([3]; Blank sample, 2:00 h): 356.25
Peak Area ([3]; Blank sample, 2:15 h): 320.33
Peak Area ([3]; Blank sample, 2:30 h): 262.70
Peak Area ([3]; Blank sample, 2:45 h): 264.07
Peak Area ([3]; Blank sample, 3:00 h): 288.65
Peak Area ([3]; Blank sample, 3:15 h): 289.95
Peak Area ([3]; Blank sample, 3:30 h): 237.41
Peak Area ([3]; Blank sample, 4:00 h): 243.90
%-residual anthocyanosides (% left) ([3]; Blank): 19%
Peak Area ([3]; GSH Protected Sample (20 mg), 0:30 h): 674.83
Peak Area ([3]; GSH Protected Sample (20 mg), 1:30 h): 618.45
Peak Area ([3]; GSH Protected Sample (20 mg), 2:30 h): 528.71
Peak Area ([3]; GSH Protected Sample (20 mg), 3:30 h): 553.82
Peak Area ([3]; GSH Protected Sample (20 mg), 4:30 h): 531.62
Peak Area ([3]; GSH Protected Sample (20 mg), 4:45 h): 478.52
Peak Area ([3]; GSH protected sample (20 mg), 0:00 h): 731.12
Peak Area ([3]; GSH protected sample (20 mg), 0:15 h): 739.50
Peak Area ([3]; GSH protected sample (20 mg), 0:45 h): 598.57
Peak Area ([3]; GSH protected sample (20 mg), 1:00 h): 652.53
Peak Area ([3]; GSH protected sample (20 mg), 1:15 h): 648.70
Peak Area ([3]; GSH protected sample (20 mg), 1:45 h): 609.47
Peak Area ([3]; GSH protected sample (20 mg), 2:00 h): 583.66
Peak Area ([3]; GSH protected sample (20 mg), 2:15 h): 592.13
Peak Area ([3]; GSH protected sample (20 mg), 2:45 h): 560.24
Peak Area ([3]; GSH protected sample (20 mg), 3:00 h): 562.10
Peak Area ([3]; GSH protected sample (20 mg), 3:15 h): 562.39
Peak Area ([3]; GSH protected sample (20 mg), 3:45 h): 495.67
Peak Area ([3]; GSH protected sample (20 mg), 4:00 h): 563.95
Peak Area ([3]; GSH protected sample (20 mg), 4:15 h): 540.10
%-residual anthocyanosides (% left) ([3]; GSH-protected): 65%
%-residual anthocyanosides (% left) ([3]; GSH-protected, listed as delphinidin-3-O-Galactose): 65%
Peak Area, Fresh solution ([4]; bilberry extract 60 mg in buffer pH 7.0, fresh sample): 654.4
% left, L-cysteine 20 mg ([4]; pH 7.0, 37° C., 4 hours): 50.6%
Peak Area, L-cysteine 20 mg ([4]; pH 7.0, 37° C., 4 hours): 331.3
% left, Blank [4, 7]: 7.8%
Peak Area, Blank [4, 7]: 50.9

COc1cc(-c2[o+]c3cc(O)cc(O)c3cc2O)cc(OC)c1O.[Cl-] [Malvidin]
Peak Area ([1]; Blank, 0 hours): 1228
Peak Area ([1]; Blank, 1 hour): 661.6
Peak Area ([1]; Blank, 2 hours): 175.3
Peak Area ([1]; Blank, 3 hours): 56.4
Peak Area ([1]; GSH 10 mg, 1 hour): 530.1
Peak Area ([1]; GSH 10 mg, 2 hours): 263.5
Peak Area ([1]; GSH 10 mg, 3 hours): 5.6
